In publication PMC7156458, “Synthetic biology based construction of biological activity-related library of fungal decalin-containing diterpenoid pyrones” (Nature Communications, 2020):

Molecular target: Aβ42 (Homo sapiens, UniProt P05067)
Experiment: Th-T (thioflavin-T) assay of Aβ42 aggregation
Assay type: biochemical
Conditions: for Th-T fluorescence of Aβ42 with compound, mean of three wells (Fig. 7a source data): concentration 50, unit not given

Chain of Aβ42 (P05067 672-713): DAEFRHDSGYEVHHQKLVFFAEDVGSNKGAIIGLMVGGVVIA

C=C1CC[C@@H]2[C@](C)(CC[C@H]3O[C@H](C=C(C)C)C[C@@]23C)[C@@H]1Cc1c(OC)oc(CO)c(C(=O)OC)c1=O [Compound 21]
Th-T fluorescence of Aβ42 with compound, mean of three wells (Fig. 7a source data) (time-course reading M143): 0.5052
Th-T fluorescence of Aβ42 with compound, mean of three wells (Fig. 7a source data) (time-course reading M144): 0.5053
Th-T fluorescence of Aβ42 with compound, mean of three wells (Fig. 7a source data) (time-course reading M145): 0.5045
Th-T fluorescence of Aβ42 (sheet Fig. 7a), mean of three wells (head suffix _10 (concentration 10), reading M63): 0.5289
Th-T fluorescence of Aβ42 (sheet Fig. 7a), mean of three wells (head suffix _10 (concentration 10), reading M64): 0.6173
Th-T fluorescence of Aβ42 (sheet Fig. 7a), mean of three wells (head suffix _10 (concentration 10), reading M65): 0.6561
Th-T fluorescence of Aβ42 (sheet Fig. 7a), mean of three wells (head suffix _10 (concentration 10), reading M66): 0.6931
Th-T fluorescence of Aβ42 (sheet Fig. 7a), mean of three wells (head suffix _10 (concentration 10), reading M67): 0.7435
Th-T fluorescence of Aβ42 (sheet Fig. 7a), mean of three wells (head suffix _10 (concentration 10), reading M68): 0.7523
Th-T fluorescence of Aβ42 (sheet Fig. 7a), mean of three wells (head suffix _10 (concentration 10), reading M69): 0.7892
Th-T fluorescence of Aβ42 (sheet Fig. 7a), mean of three wells (head suffix _10 (concentration 10), reading M70): 0.7946
Th-T fluorescence of Aβ42 (sheet Fig. 7a), mean of three wells (head suffix _10 (concentration 10), reading M71): 0.8033
Th-T fluorescence of Aβ42 (sheet Fig. 7a), mean of three wells (head suffix _10 (concentration 10), reading M72): 0.7933
Th-T fluorescence of Aβ42 (sheet Fig. 7a), mean of three wells (head suffix _10 (concentration 10), reading M73): 0.8223
Th-T fluorescence of Aβ42 (sheet Fig. 7a), mean of three wells (head suffix _10 (concentration 10), reading M74): 0.8738
Th-T fluorescence of Aβ42 (sheet Fig. 7a), mean of three wells (head suffix _10 (concentration 10), reading M75): 0.8711
Th-T fluorescence of Aβ42 (sheet Fig. 7a), mean of three wells (head suffix _10 (concentration 10), reading M76): 0.921
Th-T fluorescence of Aβ42 (sheet Fig. 7a), mean of three wells (head suffix _10 (concentration 10), reading M77): 0.9791
Th-T fluorescence of Aβ42 (sheet Fig. 7a), mean of three wells (head suffix _10 (concentration 10), reading M78): 1.0381
Th-T fluorescence of Aβ42 (sheet Fig. 7a), mean of three wells (head suffix _10 (concentration 10), reading M79): 1.098
Th-T fluorescence of Aβ42 (sheet Fig. 7a), mean of three wells (head suffix _10 (concentration 10), reading M80): 1.155
Th-T fluorescence of Aβ42 (sheet Fig. 7a), mean of three wells (head suffix _10 (concentration 10), reading M81): 1.227
Th-T fluorescence of Aβ42 (sheet Fig. 7a), mean of three wells (head suffix _10 (concentration 10), reading M82): 1.285
Th-T fluorescence of Aβ42 (sheet Fig. 7a), mean of three wells (head suffix _10 (concentration 10), reading M83): 1.378
Th-T fluorescence of Aβ42 (sheet Fig. 7a), mean of three wells (head suffix _10 (concentration 10), reading M84): 1.428
Th-T fluorescence of Aβ42 (sheet Fig. 7a), mean of three wells (head suffix _20 (concentration 20), reading M63): 0.2431
Th-T fluorescence of Aβ42 (sheet Fig. 7a), mean of three wells (head suffix _20 (concentration 20), reading M64): 0.2464
Th-T fluorescence of Aβ42 (sheet Fig. 7a), mean of three wells (head suffix _20 (concentration 20), reading M65): 0.2511
Th-T fluorescence of Aβ42 (sheet Fig. 7a), mean of three wells (head suffix _20 (concentration 20), reading M66): 0.2535
Th-T fluorescence of Aβ42 (sheet Fig. 7a), mean of three wells (head suffix _20 (concentration 20), reading M67): 0.2562
Th-T fluorescence of Aβ42 (sheet Fig. 7a), mean of three wells (head suffix _20 (concentration 20), reading M68): 0.2616
Th-T fluorescence of Aβ42 (sheet Fig. 7a), mean of three wells (head suffix _20 (concentration 20), reading M69): 0.2677
Th-T fluorescence of Aβ42 (sheet Fig. 7a), mean of three wells (head suffix _20 (concentration 20), reading M70): 0.2739
Th-T fluorescence of Aβ42 (sheet Fig. 7a), mean of three wells (head suffix _20 (concentration 20), reading M71): 0.2831
Th-T fluorescence of Aβ42 (sheet Fig. 7a), mean of three wells (head suffix _20 (concentration 20), reading M72): 0.2882
Th-T fluorescence of Aβ42 (sheet Fig. 7a), mean of three wells (head suffix _20 (concentration 20), reading M73): 0.2974
Th-T fluorescence of Aβ42 (sheet Fig. 7a), mean of three wells (head suffix _20 (concentration 20), reading M74): 0.3106
Th-T fluorescence of Aβ42 (sheet Fig. 7a), mean of three wells (head suffix _20 (concentration 20), reading M75): 0.3227
Th-T fluorescence of Aβ42 (sheet Fig. 7a), mean of three wells (head suffix _20 (concentration 20), reading M76): 0.3296
Th-T fluorescence of Aβ42 (sheet Fig. 7a), mean of three wells (head suffix _20 (concentration 20), reading M77): 0.3505
Th-T fluorescence of Aβ42 (sheet Fig. 7a), mean of three wells (head suffix _20 (concentration 20), reading M78): 0.3679
Th-T fluorescence of Aβ42 (sheet Fig. 7a), mean of three wells (head suffix _20 (concentration 20), reading M79): 0.3859
Th-T fluorescence of Aβ42 (sheet Fig. 7a), mean of three wells (head suffix _20 (concentration 20), reading M80): 0.4085
Th-T fluorescence of Aβ42 (sheet Fig. 7a), mean of three wells (head suffix _20 (concentration 20), reading M81): 0.4348
Th-T fluorescence of Aβ42 (sheet Fig. 7a), mean of three wells (head suffix _20 (concentration 20), reading M82): 0.4734
Th-T fluorescence of Aβ42 (sheet Fig. 7a), mean of three wells (head suffix _20 (concentration 20), reading M83): 0.5074
Th-T fluorescence of Aβ42 (sheet Fig. 7a), mean of three wells (head suffix _20 (concentration 20), reading M84): 0.5384
Th-T fluorescence of Aβ42 (sheet Fig. 7a), mean of three wells (head suffix _50 (concentration 50), reading M63): 0.2314
Th-T fluorescence of Aβ42 (sheet Fig. 7a), mean of three wells (head suffix _50 (concentration 50), reading M64): 0.2365
Th-T fluorescence of Aβ42 (sheet Fig. 7a), mean of three wells (head suffix _50 (concentration 50), reading M65): 0.2406
Th-T fluorescence of Aβ42 (sheet Fig. 7a), mean of three wells (head suffix _50 (concentration 50), reading M66): 0.2402
Th-T fluorescence of Aβ42 (sheet Fig. 7a), mean of three wells (head suffix _50 (concentration 50), reading M67): 0.2439
Th-T fluorescence of Aβ42 (sheet Fig. 7a), mean of three wells (head suffix _50 (concentration 50), reading M68): 0.2485
Th-T fluorescence of Aβ42 (sheet Fig. 7a), mean of three wells (head suffix _50 (concentration 50), reading M69): 0.2533
Th-T fluorescence of Aβ42 (sheet Fig. 7a), mean of three wells (head suffix _50 (concentration 50), reading M70): 0.2583
Th-T fluorescence of Aβ42 (sheet Fig. 7a), mean of three wells (head suffix _50 (concentration 50), reading M71): 0.2613
Th-T fluorescence of Aβ42 (sheet Fig. 7a), mean of three wells (head suffix _50 (concentration 50), reading M72): 0.2693
